Measurements from USRE46630E1, “Substituted 4-pyridones and their use as inhibitors of neutrophil elastase activity” (Boehringer Ingelheim International GmbH, priority 2012, dated 2017).

Each molecule was assayed against T1, Human neutrophil elastase (Homo sapiens, UniProt P08246) (assay: Human Neutrophil Elastase Assay). Conditions: Neutrophil Elastase assay; substrate MeOSuc-Ala-Ala-Pro-Val-AMC 250 μM; 15 min preincubation, 60 min incubation at room temperature; pH 7.5.
T1 construct: purchased Calbiochem 324681
T1 sequence (P08246 30-267): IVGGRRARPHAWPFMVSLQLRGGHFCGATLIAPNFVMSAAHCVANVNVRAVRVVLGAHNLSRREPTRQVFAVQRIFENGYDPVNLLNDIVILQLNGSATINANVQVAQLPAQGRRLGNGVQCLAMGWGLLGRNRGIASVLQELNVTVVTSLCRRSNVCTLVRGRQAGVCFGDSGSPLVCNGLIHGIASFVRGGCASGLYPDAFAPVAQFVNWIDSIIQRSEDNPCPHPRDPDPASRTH
Type: biochemical
How it was run: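 Run in 100 mM Tris, 500 mM NaCl, pH 7.5 with 0.01% BSA, with compounds prediluted in DMSO then buffer (5% DMSO final). Fluorescence was read at 380 nm excitation/460 nm emission after enzyme inactivation. Values were normalised to inactivated-enzyme (0%) and uninhibited-enzyme (100%) controls.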
An IC50 of 9.9 nM was found for `CNC(=O)c1cn(C(C)c2ccc(C#N)cn2)c(C)c(-c2cccc(C(F)F)c2)c1=O` (centres unmarked) [Example 16, 1-[1-(5-Cyano-pyridin-2-yl)-ethyl]-5-(3-difluoromethyl-phenyl)-6-methyl-4-oxo-1,4-dihydro-pyridine-3-carboxylic acid methylamide] in this work. An IC50 of 10.3 nM was found for `Cc1c(-c2cccc(C(F)(F)F)c2)c(=O)c(C(=O)NCC(C)(C)O)cn1C(C)c1ccc(C#N)cc1` (centres unmarked) [Example 7.15] in this work. An IC50 of 36.9 nM was found for `Cc1c(-c2cccc(C(F)(F)F)c2)c(=O)c(C(=O)NC2COC2)cn1Cc1ccc(C#N)cc1` [Example 1.38] in this work. An IC50 of under 1 nM was found for `Cc1c(-c2cccc(C(F)(F)F)c2)c(=O)c(C(=O)NCc2ccc(S(C)(=O)=O)cn2)cn1Cc1ccc(C#N)cc1` [Example 4.1, 1-(4-cyano-benzyl)-6-methyl-4-oxo-5-(3-trifluoromethyl-phenyl)-1,4-dihydro-pyridine-3-carboxylic acid (5-methanesulfonyl-pyridin-2-ylmethyl)-amide] in this work. An IC50 of 8.6 nM was found for `CNC(=O)c1cn(Cc2ccc(C#N)cc2S(C)(=O)=O)c(C)c(-c2cccc(C(F)(F)F)c2)c1=O` [Example 20] in this work. An IC50 of 7.4 nM was found for `Cc1c(-c2cccc(C(F)(F)F)c2)c(=O)c(C(=O)NCCCS(C)(=O)=O)cn1Cc1ccc(C#N)cc1` [Example 1.16] in this work. An IC50 of under 1 nM was found for `Cc1c(-c2cccc(C(F)F)c2)c(=O)c(C(=O)NCc2ccc(S(C)(=O)=O)cc2)cn1Cc1ccc(C#N)cc1F` [Example 41, 1-(4-Cyano-2-fluoro-benzyl)-5-(3-difluoromethyl-phenyl)-6-methyl-4-oxo-1,4-dihydro-pyridine-3-carboxylic acid 4-methanesulfonyl-benzylamide] in this work. An IC50 of 1.9 nM was found for `Cc1noc(CNC(=O)c2cn(C(C)c3ccc(C#N)cc3)c(C)c(-c3cccc(C(F)F)c3)c2=O)n1` (centres unmarked) [Example 8.2] in this work. An IC50 of 11 nM was found for `CCNC(=O)c1cn(C(C)c2ccc(C#N)cc2)c(C)c(-c2ccnc(C(F)F)c2)c1=O` (centres unmarked) [Example 38, 1-[1-(4-Cyano-phenyl)-ethyl]-2′-difluoromethyl-2-methyl-4-oxo-1,4-dihydro-[3,4′]bipyridinyl-5-carboxylic acid ethylamide] in this work. An IC50 of 1.7 nM was found for `Cc1c(-c2ccnc(C(F)(F)F)c2)c(=O)c(C(=O)NCC#N)cn1C(C)c1ccc(C#N)cc1` (centres unmarked) [Example 9.13] in this work. An IC50 of 22.2 nM was found for `CCNC(=O)c1cn(C(C)c2ccc(C#N)cn2)c(C)c(-c2ccnc(C(F)(F)F)c2)c1=O` (centres unmarked) [Example 19, 1-[1-(5-Cyano-pyridin-2-yl)-ethyl]-2-methyl-4-oxo-2′-trifluoromethyl-1,4-dihydro-[3,4′]bipyridinyl-5-carboxylic acid ethylamide] in this work. An IC50 of 2.1 nM was found for `Cc1c(-c2cccc(C(F)(F)F)c2)c(=O)c(C(=O)NCc2cccc(=O)[nH]2)cn1Cc1ccc(C#N)cc1` [Example 1.40] in this work. An IC50 of 4.1 nM was found for `Cc1c(-c2cccc(C(F)F)c2)c(=O)c(C(=O)NCCCN(C)C)cn1C(C)c1ccc(C#N)cc1` (centres unmarked) [Example 8.1] in this work. An IC50 of 7.8 nM was found for `CNC(=O)c1cn(C(C)c2ccc(C#N)cc2)c(C)c(-c2cccc(CF)c2)c1=O` (centres unmarked) [Example 31, 1-[1-(4-Cyano-phenyl)-ethyl]-5-(3-fluoromethyl-phenyl)-6-methyl-4-oxo-1,4-dihydro-pyridine-3-carboxylic acid methylamide] in this work. An IC50 of 10.7 nM was found for `Cc1c(-c2cccc(C(F)(F)F)c2)c(=O)c(C(=O)NCC(F)(F)F)cn1C(C)c1ccc(C#N)cn1` (centres unmarked) [Example 47.3] in this work. An IC50 of 12.9 nM was found for `COCCNC(=O)c1cn(C(C)c2ccc(C#N)cn2)c(C)c(-c2cccc(C(F)(F)F)c2)c1=O` (centres unmarked) [Example 47.1] in this work. An IC50 of under 1 nM was found for `Cc1c(-c2cccc(C(F)(F)F)c2)c(=O)c(C(=O)NCc2ccc(S(C)(=O)=O)cc2)cn1Cc1ccc(C#N)cc1F` [Example 2.8] in this work. An IC50 of 51 nM was found for `CNC(=O)c1cn(Cc2ccc(F)cc2)c(C)c(-c2cccc(C(F)(F)F)c2)c1=O` [Example 3.3] in this work. An IC50 of 1.4 nM was found for `Cc1c(-c2ccnc(C(F)(F)F)c2)c(=O)c(C(=O)NCc2ccc(S(C)(=O)=O)cc2)cn1Cc1ccc(C#N)cc1F` [Example 5.3] in this work. An IC50 of 10.4 nM was found for `Cc1c(-c2cccc(C(F)(F)F)c2)c(=O)c(C(=O)NCCN2CCOCC2)cn1Cc1ccc(C#N)cc1` [Example 1.49] in this work. An IC50 of 35.9 nM was found for `Cc1c(-c2cccc(C(F)(F)F)c2)c(=O)c(C(=O)NCC[N+](C)(C)C)cn1Cc1ccc(C#N)cc1` [Example 12.1, (2-{[1-(4-Cyano-benzyl)-6-methyl-4-oxo-5-(3-trifluoromethyl-phenyl)-1,4-dihydro-pyridine-3-carbonyl]-amino}-ethyl)-trimethyl-ammonium chloride] in this work. An IC50 of 10.1 nM was found for `Cc1c(-c2ccnc(C(F)(F)F)c2)c(=O)c(C(=O)NC2COC2)cn1C(C)c1ccc(C#N)cc1` (centres unmarked) [Example 9.17] in this work. An IC50 of 1510 nM was found for `CNC(=O)c1cn(C(C)c2ccc(C#N)cc2)c(C)c(-c2ccnc(C(F)(F)F)c2)c1=O` (single isomer, unassigned) [Example 9B] in this work. An IC50 of 1 nM was found for `Cc1c(-c2cccc(C(F)(F)F)c2)c(=O)c(C(=O)NCc2ccc(S(C)(=O)=O)cn2)cn1Cc1ccc(C#N)c(F)c1` [Example 4.5] in this work. An IC50 of 3.3 nM was found for `Cc1c(-c2ccnc(C(F)(F)F)c2)c(=O)c(C(=O)NCCS(C)(=O)=O)cn1C(C)c1ccc(C#N)cc1` (centres unmarked) [Example 9.2] in this work. An IC50 of 1.8 nM was found for `COCCCNC(=O)c1cn(C(C)c2ccc(C#N)cc2)c(C)c(-c2cccc(C(F)F)c2)c1=O` (centres unmarked) [Example 8.25] in this work. An IC50 of 2.4 nM was found for `Cc1c(-c2cccc(C(F)(F)F)c2)c(=O)c(C(=O)NC2CNC(=O)C2)cn1C(C)c1ccc(C#N)cc1` (centres unmarked) [Example 7.7] in this work. An IC50 of 20.3 nM was found for `CNC(=O)c1cn(Cc2ccc(C#N)cc2F)c(C)c(-c2cccc(C(F)(F)F)c2)c1=O` [Example 3.6] in this work. An IC50 of 8.1 nM was found for `CNC(=O)c1cn(Cc2ccc(C#N)cc2S(=O)(=O)C2CC2)c(C)c(-c2cccc(C(F)(F)F)c2)c1=O` [Example 27] in this work. An IC50 of 9.6 nM was found for `Cc1c(-c2cccc(C(F)(F)F)c2)c(=O)c(C(N)=O)cn1Cc1ccc(C#N)cc1` [Example 1.52] in this work. An IC50 of 4.6 nM was found for `CCNC(=O)c1cn(Cc2ccc(C#N)cc2S(C)(=O)=O)c(C)c(-c2cccc(C(F)(F)F)c2)c1=O` [Example 21] in this work. An IC50 of 3.1 nM was found for `Cc1c(-c2cccc(C(F)F)c2)c(=O)c(C(=O)NCc2ccno2)cn1C(C)c1ccc(C#N)cc1` (centres unmarked) [Example 8.17] in this work. An IC50 of 7 nM was found for `CCCNC(=O)c1cn(C(C)c2ccc(C#N)cc2)c(C)c(-c2ccnc(C(F)(F)F)c2)c1=O` (centres unmarked) [Example 9.14] in this work. An IC50 of 9.8 nM was found for `Cc1c(-c2ccnc(C(F)(F)F)c2)c(=O)c(C(=O)NCC2CC3CCC2O3)cn1C(C)c1ccc(C#N)cc1` (centres unmarked) [Example 9.24] in this work. An IC50 of 17.3 nM was found for `Cc1c(-c2ccnc(C(F)(F)F)c2)c(=O)c(C(=O)NCC2CC(O)C2)cn1C(C)c1ccc(C#N)cc1` (centres unmarked) [Example 9.48] in this work. An IC50 of 17.2 nM was found for `Cc1c(-c2cccc(C(F)(F)F)c2)c(=O)c(C(=O)NC2CCS(=O)(=O)C2)cn1Cc1ccc(C#N)cc1` (centres unmarked) [Example 1.64] in this work. An IC50 of 19 nM was found for `Cc1c(-c2cccc(C(F)(F)F)c2)c(=O)c(C(=O)NCC(C)O)cn1Cc1ccc(C#N)cc1` (centres unmarked) [Example 1.23] in this work. An IC50 of 1.2 nM was found for `Cc1nnc(CNC(=O)c2cn(C(C)c3ccc(C#N)cc3)c(C)c(-c3cccc(C(F)F)c3)c2=O)o1` (centres unmarked) [Example 8.5] in this work. An IC50 of 1.5 nM was found for `Cc1cccc(-c2c(C)n(Cc3ccc(C#N)cc3)cc(C(=O)NCc3ccc(S(C)(=O)=O)cc3)c2=O)c1` [Example 6.2] in this work. An IC50 of 23.5 nM was found for `Cc1c(-c2ccnc(C(F)(F)F)c2)c(=O)c(C(=O)NC2CCOC2)cn1C(C)c1ccc(C#N)cc1` (centres unmarked) [Example 9.34] in this work. An IC50 of under 1 nM was found for `Cc1c(-c2cccc(C(F)(F)F)c2)c(=O)c(C(=O)NCc2ccc(S(C)(=O)=O)cc2)cn1C(C)c1ccc(C#N)cn1` (centres unmarked) [Example 47.13] in this work. An IC50 of 4.5 nM was found for `Cc1c(-c2ccnc(C(F)(F)F)c2)c(=O)c(C(=O)NCCCO)cn1C(C)c1ccc(C#N)cc1` (centres unmarked) [Example 9.1] in this work. An IC50 of 17.1 nM was found for `Cc1c(-c2cccc(C(F)(F)F)c2)c(=O)c(C(=O)NCCn2cccn2)cn1Cc1ccc(C#N)cc1` [Example 1.30] in this work. An IC50 of 13.3 nM was found for `CNC(=O)c1cn(C(C)c2ccc(C#N)cc2)c(C)c(-c2ccc(F)c(C(F)F)c2)c1=O` (centres unmarked) [Example 28] in this work. An IC50 of 18.7 nM was found for `Cc1c(-c2ccnc(C(F)(F)F)c2)c(=O)c(C(=O)NCC(=O)OC(C)C)cn1C(C)c1ccc(C#N)cc1` (centres unmarked) [Example 9.31] in this work. An IC50 of 1.4 nM was found for `Cc1nnc(CNC(=O)c2cn(C(C)c3ccc(C#N)cc3)c(C)c(-c3cccc(C(F)(F)F)c3)c2=O)o1` (centres unmarked) [Example 7.5] in this work. An IC50 of 48.1 nM was found for `Cc1c(-c2cccc(C(F)(F)F)c2)c(=O)c(C(=O)NC(CO)CO)cn1Cc1ccc(C#N)cc1` [Example 1.19] in this work. An IC50 of 4.7 nM was found for `Cc1c(-c2cccc(C(F)(F)F)c2)c(=O)c(C(=O)NCC(C)O)cn1C(C)c1ccc(C#N)cc1` (centres unmarked) [Example 7.14] in this work. An IC50 of 31.6 nM was found for `Cc1c(-c2cccc(C(F)(F)F)c2)c(=O)c(C(=O)NC2CCOCC2)cn1Cc1ccc(C#N)cc1` [Example 1.29] in this work. An IC50 of 7.8 nM was found for `CCNC(=O)c1cn(C(CC)c2ccc(C#N)cc2)c(C)c(-c2cccc(C(F)(F)F)c2)c1=O` (centres unmarked) [Example 35, 1-[1-(4-Cyano-phenyl)-propyl]-6-methyl-4-oxo-5-(3-trifluoromethyl-phenyl)-1,4-dihydro-pyridine-3-carboxylic acid ethylamide] in this work. An IC50 of 23 nM was found for `Cc1c(-c2cccc(C(F)(F)F)c2)c(=O)c(C(=O)NCc2cncn2C)cn1Cc1ccc(C#N)cc1` [Example 1.32] in this work. An IC50 of 46 nM was found for `CNC(=O)c1cn(Cc2ccc(C#N)cc2F)c(C)c(-c2ccnc(C(F)(F)F)c2)c1=O` [Example 42, 1-(4-Cyano-2-fluoro-benzyl)-2-methyl-4-oxo-2′-trifluoromethyl-1,4-dihydro-[3,4′]bipyridinyl-5-carboxylic acid methylamide] in this work. An IC50 of 6.6 nM was found for `Cc1c(-c2cccc(C(F)(F)F)c2)c(=O)c(C(=O)NCC[S+](C)[O-])cn1Cc1ccc(C#N)cc1` (centres unmarked) [Example 1.13] in this work.
